The values that follow come from ChEMBL document CHEMBL3596122, “Isoform-Selective and Stereoselective Inhibition of Hypoxia Inducible Factor-2” (J Med Chem, 2015).

The source made the active and inactive calls. The rule behind the calls is not given here.

The target in test [1] is T1, Endothelial PAS domain-containing protein 1 (Homo sapiens, UniProt Q99814).
Description: Binding affinity to wild type His6-Gbeta1-fused HIF-2alpha PAS-B domain (240 to 350) (unknown origin) expressed in Escherichia coli by ITC analysis
Test [2] addresses T2, Endothelial PAS domain-containing protein 1 (Homo sapiens, UniProt Q99814, S304M).
Test [3] has as its target T1, Endothelial PAS domain-containing protein 1. The source holds these as a separate data set.
Description: Binding affinity to wild type GST-tagged HIF-2alpha PAS-B (240 to 350) (unknown origin) expressed in Escherichia coli assessed as inhibition of interaction with His6-Gbeta1/FLAG fused ARNT PAS-B after 4 hrs by AlphaScreen assay
Test [4] has the same target. The settings on record: Hep 3B2, 0.01 to 10 uM.
Description: Inhibition of HIF-2alpha in human Hep3B cells assessed as downregulation of EPO mRNA expression at 0.01 to 10 uM by RT-PCR analysis
Test [5] deals with T2, Endothelial PAS domain-containing protein 1. The test can be described thus: Binding affinity to His6-Gbeta1-fused HIF-2alpha PAS-B domain S304M mutant (240 to 350) (unknown origin) expressed in Escherichia coli by ITC analysis.
For test [6], the target named is Hypoxia-inducible factor 1-alpha (Homo sapiens, UniProt Q16665). The test can be described thus: Binding affinity to wild type GST-fused HIF-1alpha PAS-B domain (238 to 349) (unknown origin) expressed in Escherichia coli assessed as compound-protein complex formation by ITC analysis.
Test [7] addresses T1, Endothelial PAS domain-containing protein 1. Description: Inhibition of HIF-2alpha in human Hep3B cells assessed as downregulation of EPO mRNA expression by RT-PCR analysis.
In a further test the test system is Hep 3B2. Description: Effect on HIF-1-mediated PGK1 mRNA expression in human Hep3B cells at 0.01 to 10 uM by RT-PCR analysis. Format: cell-based.

T2 sequence (Q99814 whole entry S304M, the tested form may be a part): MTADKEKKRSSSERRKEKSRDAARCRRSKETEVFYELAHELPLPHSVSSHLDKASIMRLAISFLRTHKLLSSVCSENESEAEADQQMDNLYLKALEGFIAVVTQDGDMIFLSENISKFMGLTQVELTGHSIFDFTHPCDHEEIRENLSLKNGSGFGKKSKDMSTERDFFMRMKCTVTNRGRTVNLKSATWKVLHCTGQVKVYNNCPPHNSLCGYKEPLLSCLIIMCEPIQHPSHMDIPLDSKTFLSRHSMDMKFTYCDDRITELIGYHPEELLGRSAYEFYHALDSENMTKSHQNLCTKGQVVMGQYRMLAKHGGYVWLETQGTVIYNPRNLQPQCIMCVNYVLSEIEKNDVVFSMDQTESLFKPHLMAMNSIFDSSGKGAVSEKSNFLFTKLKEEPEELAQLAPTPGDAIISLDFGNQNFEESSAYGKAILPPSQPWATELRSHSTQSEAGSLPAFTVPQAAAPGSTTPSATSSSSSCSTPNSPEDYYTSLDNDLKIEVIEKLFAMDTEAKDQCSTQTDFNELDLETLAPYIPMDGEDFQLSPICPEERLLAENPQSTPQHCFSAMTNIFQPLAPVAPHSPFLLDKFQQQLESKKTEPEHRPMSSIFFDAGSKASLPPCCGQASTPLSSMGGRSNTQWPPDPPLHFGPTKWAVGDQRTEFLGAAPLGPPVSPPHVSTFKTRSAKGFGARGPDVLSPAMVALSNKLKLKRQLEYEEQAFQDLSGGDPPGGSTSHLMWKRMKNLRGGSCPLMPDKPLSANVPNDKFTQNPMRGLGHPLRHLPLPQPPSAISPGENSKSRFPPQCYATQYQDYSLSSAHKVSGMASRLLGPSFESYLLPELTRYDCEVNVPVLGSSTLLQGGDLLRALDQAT
T1 sequence (Q99814 whole entry, the tested form may be a part): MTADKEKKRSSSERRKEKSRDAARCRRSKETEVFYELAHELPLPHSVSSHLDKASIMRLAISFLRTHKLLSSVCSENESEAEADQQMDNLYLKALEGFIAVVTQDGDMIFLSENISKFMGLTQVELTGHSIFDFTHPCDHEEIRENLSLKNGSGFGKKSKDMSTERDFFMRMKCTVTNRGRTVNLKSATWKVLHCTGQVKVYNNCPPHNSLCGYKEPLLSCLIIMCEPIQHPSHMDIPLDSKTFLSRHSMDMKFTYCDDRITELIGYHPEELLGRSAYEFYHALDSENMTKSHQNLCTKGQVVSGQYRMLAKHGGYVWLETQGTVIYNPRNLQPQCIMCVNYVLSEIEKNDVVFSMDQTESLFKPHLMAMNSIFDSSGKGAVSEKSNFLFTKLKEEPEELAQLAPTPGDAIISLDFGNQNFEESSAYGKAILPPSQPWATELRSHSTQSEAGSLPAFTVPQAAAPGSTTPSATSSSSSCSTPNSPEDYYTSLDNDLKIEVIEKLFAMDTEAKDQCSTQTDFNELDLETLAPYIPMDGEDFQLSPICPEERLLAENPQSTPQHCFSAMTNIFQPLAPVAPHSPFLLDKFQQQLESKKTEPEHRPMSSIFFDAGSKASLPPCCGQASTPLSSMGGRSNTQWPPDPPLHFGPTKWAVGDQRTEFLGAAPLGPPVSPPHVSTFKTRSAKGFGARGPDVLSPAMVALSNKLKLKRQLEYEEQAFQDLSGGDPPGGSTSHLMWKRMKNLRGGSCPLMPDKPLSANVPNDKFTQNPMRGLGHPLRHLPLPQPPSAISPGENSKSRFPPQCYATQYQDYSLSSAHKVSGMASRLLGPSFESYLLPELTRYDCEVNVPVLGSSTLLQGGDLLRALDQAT
Chain of Hypoxia-inducible factor 1-alpha (Q16665 whole entry, the tested form may be a part): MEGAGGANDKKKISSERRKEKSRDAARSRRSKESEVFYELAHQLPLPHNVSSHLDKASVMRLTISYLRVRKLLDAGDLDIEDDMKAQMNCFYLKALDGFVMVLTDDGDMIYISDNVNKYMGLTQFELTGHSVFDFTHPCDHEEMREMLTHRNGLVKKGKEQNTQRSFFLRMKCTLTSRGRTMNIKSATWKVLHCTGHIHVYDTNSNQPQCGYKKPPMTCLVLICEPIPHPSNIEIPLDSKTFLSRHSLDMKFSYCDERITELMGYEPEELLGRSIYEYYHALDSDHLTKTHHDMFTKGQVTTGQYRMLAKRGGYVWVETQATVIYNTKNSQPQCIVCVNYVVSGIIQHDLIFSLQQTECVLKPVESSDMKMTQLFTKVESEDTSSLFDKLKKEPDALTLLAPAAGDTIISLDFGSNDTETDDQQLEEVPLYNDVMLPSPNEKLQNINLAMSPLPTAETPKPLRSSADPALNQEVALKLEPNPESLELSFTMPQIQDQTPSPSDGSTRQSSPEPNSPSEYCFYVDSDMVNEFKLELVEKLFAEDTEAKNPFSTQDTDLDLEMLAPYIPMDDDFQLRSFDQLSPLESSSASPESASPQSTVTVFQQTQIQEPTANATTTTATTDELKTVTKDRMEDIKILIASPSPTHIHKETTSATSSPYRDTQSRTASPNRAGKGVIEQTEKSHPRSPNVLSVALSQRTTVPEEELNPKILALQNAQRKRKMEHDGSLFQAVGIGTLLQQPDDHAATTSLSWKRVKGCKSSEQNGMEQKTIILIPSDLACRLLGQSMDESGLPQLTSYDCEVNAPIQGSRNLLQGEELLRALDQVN

Consider `CC(C)CC1CC(c2cccc(Br)c2)Nc2nnnn21` (racemic), for which the Kd in test [1] turned out to be 1.17 µM.
In turn, `Fc1c(Br)ccc(Cl)c1C1CC(c2cccc(Br)c2)Nc2nnnn21` (racemic) returned a Kd in test [1] of 0.085 µM.
Take `Clc1ccccc1[C@@H]1C[C@H](c2cccc(Br)c2)Nc2nnnn21`: in test [1], the Kd was greater than 2 µM. In addition, the IC50 in test [2] and in test [3] was greater than 30 µM each time.
`Fc1cc(Br)cc(C2CC(c3ccccc3)n3nnnc3N2)c1` (racemic): in test [1], the affinity, expressed as Kd, was 0.216 µM.
In test [1], `Fc1cc(Br)cc([C@H]2C[C@@H](c3ccccc3)n3nnnc3N2)c1` returned a Kd greater than 2 µM. Further, the IC50 in test [2] and in test [3] was greater than 30 µM each time.
Compound `Brc1cccc([C@@H]2C[C@H](c3cccc(Br)c3)n3nnnc3N2)c1` returned a Kd in test [1] of 0.063 µM. For the same compound, the IC50 in test [2] is greater than 30 µM; in test [3] it was 0.112 µM.
On the same counts, the results for `Brc1cccc([C@@H]2C[C@H](c3ccccc3Br)n3nnnc3N2)c1` are 0.36 µM, 18.9 µM and 0.314 µM.
The corresponding values for `Fc1ccc(Br)c(F)c1[C@@H]1C[C@H](c2cccc(Br)c2)Nc2nnnn21` are greater than 2 µM, greater than 30 µM and 22.3 µM.
In test [1], `Fc1ccc(Br)c(F)c1[C@H]1C[C@@H](c2cccc(Br)c2)Nc2nnnn21` returned an equilibrium dissociation constant (Kd) of 0.034 µM. Also, the IC50 in test [2] stood at 3.8 µM; in test [3], 0.032 µM.
`Fc1ccc(F)c(C2CC(c3cccc(Br)c3)Nc3nnnn32)c1F` (racemic) gave an equilibrium dissociation constant (Kd) in test [1] of 0.393 µM.
In test [1], `Fc1cc(Br)cc([C@H]2C[C@@H](c3cccc(Br)c3)n3nnnc3N2)c1` came in with a Kd greater than 2 µM. For the same compound, the IC50 in test [2] and in test [3] was greater than 30 µM throughout. Further, in test [4], the inhibition entry was “inactive”.
On to `Clc1ccc(Br)cc1[C@H]1C[C@@H](c2cccc(Br)c2)Nc2nnnn21`, for which binding in test [1] was put at a Kd of 0.125 µM. Besides, the half-inhibitory concentration (IC50) in test [2] was 23.9 µM; in test [3], 0.087 µM.
Regarding `Fc1c(Cl)cccc1C1CC(c2cccc(Br)c2)Nc2nnnn21` (racemic), the Kd in test [1] was determined as 0.038 µM.
Take `Brc1cccc([C@H]2C[C@@H](c3cccc(Br)c3)n3nnnc3N2)c1`: the Kd in test [1] was greater than 2 µM. Besides, the IC50 in test [2] and in test [3] was greater than 30 µM each time.
`Brc1cccc(C2CC(c3cccc(Br)c3)n3nnnc3N2)c1` (racemic): binding in test [1] was put at a Kd of 0.07 µM.
Still for that read-out and setting: in the case of `Fc1c(Br)ccc(Br)c1C1CC(c2cccc(Br)c2)Nc2nnnn21` (racemic) it was 0.24 µM.
`Brc1cccc([C@H]2C[C@@H](c3ccccc3Br)n3nnnc3N2)c1` yielded a Kd in test [1] greater than 2 µM. In addition, the IC50 is greater than 30 µM in test [2] and 28.3 µM in test [3].
Take `Clc1ccccc1C1CC(c2cccc(Br)c2)Nc2nnnn21` (racemic): in test [1], binding was put at a Kd of 0.361 µM.
Take `Fc1ccc(Cl)c(F)c1C1CC(c2cccc(Br)c2)Nc2nnnn21` (racemic): in test [1], the affinity, expressed as Kd, was 0.085 µM.
`Fc1cc(Br)cc([C@@H]2C[C@H](c3cccc(Br)c3)n3nnnc3N2)c1`: the figures for the Kd in test [1], in test [5] and in test [6] were 0.023 µM, 2 µM and greater than 5 µM, respectively. Further, the IC50 in test [2] is 14.5 µM; in test [3], 0.043 µM; in test [7], less than 1 µM. Moreover, the result in the test on Hep 3B2 was inactive.
For the compound `Brc1cccc(C2CC(c3ccccc3Br)n3nnnc3N2)c1` (racemic), binding in test [1] was characterised by a dissociation constant (Kd) of 0.4 µM.
In test [1], `Clc1ccc(Br)cc1C1CC(c2cccc(Br)c2)Nc2nnnn21` (racemic) registered a Kd of 0.126 µM.
In test [1], `Clc1ccc(Br)cc1[C@@H]1C[C@H](c2cccc(Br)c2)Nc2nnnn21` registered a Kd greater than 2 µM. For the same compound, the IC50 in test [2] and in test [3] was greater than 30 µM in each case.
For the compound `Fc1ccc(Br)c(Cl)c1C1CC(c2cccc(Br)c2)Nc2nnnn21` (racemic), the Kd in test [1] came to 0.411 µM.
In the case of `Clc1cccc(C2CC(c3cccc(Br)c3)Nc3nnnn32)c1` (racemic), the dissociation constant Kd in test [1] came to 0.116 µM.
With `Brc1cccc(C2CC(c3ccccc3I)n3nnnc3N2)c1` (racemic), the Kd in test [1] was 0.766 µM.
Regarding `Clc1ccccc1[C@H]1C[C@@H](c2cccc(Br)c2)Nc2nnnn21`, in test [1], the Kd turned out to be 0.294 µM. Moreover, the values for the IC50 in test [2] and in test [3] were 15.9 µM and 0.195 µM, respectively.
Regarding `Fc1cc(Br)cc(C2CC(c3cccc(Br)c3)n3nnnc3N2)c1` (racemic), the Kd in test [1] was 0.028 µM.
On the same count and under the same terms, in the case of `Fc1ccc(I)cc1C1CC(c2cccc(Br)c2)Nc2nnnn21` (racemic) it was 0.159 µM; in that of `Fc1c(Cl)ccc(Cl)c1C1CC(c2cccc(Br)c2)Nc2nnnn21` (racemic), 0.194 µM; in that of `Fc1ccccc1C1CC(c2cccc(Br)c2)Nc2nnnn21` (racemic), 0.327 µM.
The same measure, in the same setting: in the case of `Fc1ccc(Br)c(F)c1C1CC(c2cccc(Br)c2)Nc2nnnn21` (racemic) it was 0.049 µM.
Regarding `Fc1cc(Br)cc([C@@H]2C[C@H](c3ccccc3)n3nnnc3N2)c1`, binding in test [1] was characterised by a dissociation constant (Kd) of 0.165 µM. In addition, the half-inhibitory concentration (IC50) is 10.1 µM in test [2] and 0.097 µM in test [3].
